Data as given in article PMC5734728, “The JAK2/STAT3 inhibitor pacritinib effectively inhibits patient-derived GBM brain tumor initiating cells in vitro and when used in combination with temozolomide increases survival in an orthotopic xenograft model” (PLoS ONE, 2017).

Tests used:
BT189 = assay: alamarBlue BTIC viability assay, BT189; format: cell-based; details: Homo sapiens; BTIC line BT189, alamarBlue
p-Akt S473 = assay: western blotting of p-Akt in BTICs; format: cell-based, human
Experimental: (§1) BTIC spheres were enzymatically dissociated as described above and plated at 10^6 cells/2 mL of media. Cells were treated with vehicle (DMSO), pacritinib, TMZ, or a combination of pacritinib and TMZ and pelleted at select time points (3, 24, and 48 hours). For protein extraction, BTICs were lysed in modified radio-immunoprecipitation assay buffer supplemented with Complete Mini protease (Roche) and Halt phosphatase (Thermo Scientific) inhibitor cocktails. […] Blots were stained with primary antibodies followed by horseradish peroxidase-conjugated secondary antibodies. […] Cell Signaling Technology), STAT3 (1:1000; Cell Signaling Technology), p-Akt S473 (1:1000; Cell Signaling Technology), Akt (1:1000; Cell Signaling Technology), p-p44/42 MAPK (T202/Y204) (1:1000; Cell Signaling Technology), p44/42 MAPK (1:4000; Cell Signaling Technology), poly (ADP-ribose) polymerase (1:1000; Cell Signaling Technology), β-tubulin (1:1000; Cell Signaling Technology), and Actin (1:1000; Santa Cruz Biotechnology). Secondary antibodies included donkey anti-mouse (1:5000; Cell Signaling Technology), donkey anti-goat (1:5000; Millipore), and goat anti-rabbit (1:5000; Cell Signaling Technology). […] Bands were visualized with the SuperSignal West Pico chemiluminescent solution (Thermo Scientific) and an Amersham™ Imager 600 (General Electric).

[1] = system: p-p44/42 MAPK (T202/Y204); assay: western blotting of p-p44/42 MAPK in BTICs; format: cell-based, human
Experimental: as §1

[2] = system: BT143 orthotopic xenograft; assay: Kaplan-Meier survival, orthotopic BT143 xenograft; format: in vivo; details: BT143 xenografted mice; p < 0.4622 log-rank
[3] = system: BT206 orthotopic xenograft; assay: Kaplan-Meier survival, orthotopic BT206 xenograft; format: in vivo; details: BT206 xenografted mice; p < 0.0968 log-rank
[4] = human, in vivo, cited from earlier work
[5] = BT147 and BT53, low micromolar concentrations, 3 hours

C1=C/COCc2cc(ccc2OCCN2CCCC2)Nc2nccc(n2)-c2cccc(c2)COC/1 [pacritinib]
IC50 (BT189): 1010 nM
p-Akt S473 (p-Akt S473; BT147 and BT53, 5 and 10 μM): decreased
phosphorylation of AKT S473 (p-Akt S473; [5]): unchanged levels of phosphorylation
p-p44/42 MAPK ([1]; BT53, 5 and 10 μM): decreased p-p44/42 MAPK
phosphorylation of p44/42 MAPK (T202/Y204) [1, 5]: unchanged levels of phosphorylation
efficacy of treatment alone (Kaplan-Meier survival) [2]: no efficacy
efficacy of treatment alone (Kaplan-Meier survival) [3]: no efficacy
Cmax ([4]; 100 mg): 7.8 µM
mean maximum concentration (Cmax) ([4]; 100 mg): 3699 ng/mL
median time to maximum concentration (Tmax) [4]: 5 h
